“Also recorded” adds a separate entry of the source.
System: CK-p25 Tg mice
Experiment: Brain weight and lateral ventricle expansion in CK-p25 Tg mice
Type: in vivo, mouse
Procedure: A study was conducted to examine the effect of gamma exposure and/or administration in accordance with some embodiments on DNA damage and neuronal loss in the visual cortex of a subject. For the study, an inducible mouse model of p25 accumulation (i.e., a creatine kinase carboxyl-terminal fragment p25 Tg mouse (CK-p25 Tg mouse)) was used. […] A study was conducted to compare groups of mice under different treatment regimens. FIG. 84 is a diagram of the groups including CK-control mice 8400, untreated CK-p25 Tg mice 8402, CK-p25 Tg mice treated with memantine (10 mg/kg daily) 8404, CK-p25 Tg mice exposed to the 40-Hz light flicker (one hour daily for 6 weeks) in accordance with some embodiments 8406, and CK-p25 Tg mice treated with memantine and also exposed to the 40-Hz light flicker 8408. Memantine is a medication used with limited success to treat severe AD by blocking NMDA receptors, thereby acting on the glutamatergic system. […] For example, gamma exposure reduced and/or prevented CKp-25-induced loss of brain weight. FIG. 85 is bar graph comparing brain weight change in CK-control mice, untreated CK-p25 Tg mice, CK-p25 Tg mice treated with memantine, CK-p25 Tg mice exposed to the 40-Hz light flicker in accordance with some embodiments, and CK-p25 Tg mice treated with both memantine and the 40-Hz light flicker. Brain weight loss was pronounced in untreated CK-p25 Tg mice, CK-p25 Tg mice treated with memantine, and CK-p25 Tg mice treated with both memantine and the 40-Hz light flicker. However, CK-p25 Tg mice exposed to the 40-Hz light flicker in accordance with some embodiments retained more brain weight. […] For example, gamma exposure reduced and/or prevented CKp-25-induced abnormal lateral ventricle expansion in subjects. FIG. 86 is bar graph comparing fold change of lateral ventricle expansion in CK-control mice, untreated CK-p25 Tg mice, CK-p25 Tg mice treated with memantine, CK-p25 Tg mice exposed to the 40-Hz light flicker in accordance with some embodiments, and CK-p25 Tg mice treated with both memantine and the 40-Hz light flicker with expansion in the CK-control mice as a baseline. Lateral ventricle expansion was pronounced in untreated CK-p25 Tg mice, CK-p25 Tg mice treated with memantine, and CK-p25 Tg mice treated with both memantine and the 40-Hz light flicker. Lateral ventricles in CK-p25 Tg mice exposed to the 40-Hz light flicker in accordance with some embodiments expanded much less than the lateral ventricles in the other CK-p25 Tg mice.

[1] = memantine + 40-Hz light flicker

SMILES: CC12CC3CC(C)(C1)CC(N)(C3)C2 [memantine]
- Brain weight loss (memantine 10 mg/kg daily): pronounced
- Lateral ventricle expansion (memantine 10 mg/kg daily): pronounced; also recorded: largest
- Brain weight loss [1]: pronounced
- Lateral ventricle expansion [1]: pronounced; also recorded: largest

Reference: US12138398B2, “Methods and devices for providing a stimulus to a subject to induce gamma oscillations” (Massachusetts Institute of Technology, priority 2015, dated 2024)
